“Also recorded” adds a separate entry of the source.
Columns and labels:
[1] = system: neonatal rat ventricular myocytes (NRVM)
Protocol: NRVM culture. […] Myocyte preparations were pre-plated in Dulbecco's modified Eagle's medium (DMEM, Cellgro), supplemented with 10% (v/v) fetal bovine serum (FBS, HyClone), 4 mM L-glutamine and 1% penicillin/streptomycin for 1 hr at 37° C. to reduce fibroblast contamination, then plated at a density of 2.5×10^5 cells per well on 6-well tissue culture plates (or 10,000 cells/well on 96-well tissue culture plates) coated with a 0.2% (w/v) gelatin solution.
For infection with calcineurin adenovirus, NRVM were exposed to adenovirus at a multiplicity of infection (MOI) of 25 for 48 h prior to analysis.
Hypertrophy and Toxicity Assays. Primary hypertrophy endpoints for NRVM included quantitation of ANF secretion, total cellular protein and cell volume. ANF in media supernatants was quantitated by competitive ELISA using a monoclonal anti-ANF antibody (Biodesign) and a biotinylated ANF peptide (Phoenix Peptide). Total cellular protein was quantitated by standard Coomassie dye-binding assay; cells were lysed in protein assay reagent (BioRad) and absorbance at A595 was measured after 1 hr. […] After recovery by centrifugation, cell pellets were washed in PBS, resuspended in 10 ml IsoFlow electrolyte solution (Beckman-Coulter) and analyzed with a Z2 Coulter Particle Counter and Size Analyzer (Beckman-Coulter). […]

[2] = system: S-nitrosylation-activated calcium channels; conditions: Van Rossum et al., 2000; cited from earlier work
[3] = system: MCIP1 protein (indicator of calcineurin activity) in NRVM; test: Western blot of MCIP1 protein in NRVM; assay type: cell-based, rat; conditions: for expression of 38 kDa calcineurin-independent MCIP1 isoform: NRVM
Protocol: (§1) Western Blots. For protein sample preparation, cultured cells were lysed in extraction buffer (50 mM Tris, pH 7.5, 150 mM NaCl, 1% Triton X-100, 0.5% deoxycholic acid, 0.1% SDS) supplemented with protease inhibitors (1 mM AEBSF, 10 mg/ml aprotinin, 0.1 mM leupeptin, 2 mM EDTA). Left ventricle samples were ground under liquid nitrogen and solubilized in extraction buffer containing protease inhibitors. Homogenates were centrifuged 10 min at 4° C. at 16,000 g and supernatants recovered. Protein concentrations were determined by the bicinchoninic acid method (BCA Protein Assay, Pierce) with bovine serum albumin as a standard. Equivalent quantities of protein samples ([…]) were denatured in Laemmli buffer and resolved on Tris-glycine SDS-PAGE gels (4-20% acrylamide gradient, Invitrogen). Resolved proteins were transferred to nitrocellulose membranes, blocked in 5% nonfat dry milk, and probed with rabbit polyclonal primary antibody (diluted in TBST; 50 mM Tris, pH 7.5, 150 mM NaCl, 0.1% Tween-20) supplemented with 5% nonfat dry milk. Primary antibodies used include: anti-TRPC1 and TRPC3 (Alomone Labs) and anti-MCIP1 (Myogen, Inc). Membranes were washed, probed with a goat anti-rabbit horseradish peroxidase-conjugated secondary antibody (Southern Biotechnology Associates), and processed for enhanced chemiluminescence (SuperSignal reagent, Pierce). To verify equivalent protein loading, membranes were subsequently reprobed with a polyclonal rabbit antibody to the housekeeping gene IP90-calnexin. Densitometric analysis of immunoreactive band images was performed using a ChemiImager (Alpha Innotech).

[4] = system: arachidonic acid-activated calcium channels; conditions: Luo et al., 2001; cited from earlier work
[5] = system: voltage-gated calcium channels; conditions: Maruyama et al., 1997; cited from earlier work
[6] = system: purinergic P2X receptor calcium channels; conditions: cited from earlier work
[7] = system: calcium-activated chloride channels; conditions: Chorna-Ornan et al., 2001; cited from earlier work
ryanodine receptors = conditions: Maruyama et al., 1997; cited from earlier work
[8] = system: TRPC channel protein in left ventricle; test: Isoproterenol infusion model, Western blot of TRPC isoforms in left ventricle; assay type: in vivo, rat
Protocol: as §1, with “Innotech). Isoproterenol Infusion. For pharmacologic induction of hypertrophy in vivo, nine to ten-week-old male Sprague-Dawley rats were anesthetized via passive inhalation of 2.0% isoflurane. When a level of surgical anesthesia was reached, an osmotic minipump (Alzet model 2001, Alza Corp., Palo Alto, Calif.) containing either vehicle (0.1% ascorbic acid in 0.9% NaCl), or isoproterenol (4.8 mg/kg/d) was subcutaneously implanted into the back between the scapulae followed by closure with 3-0 silk sutures. After 4 days of recovery, animals were sacrificed and left ventricular tissue processed for Western blot analysis as described above. Average heart weight to body weight ratios in isoproterenol versus vehicle-infused rats increased 48% (data not shown).” for “Innotech).”

[9] = Isoproterenol infusion model, heart weight to body weight ratio; assay type: in vivo; conditions: rat, isoproterenol 4.8 mg/kg/d by osmotic minipump, 4 days
Protocol: Isoproterenol Infusion. For pharmacologic induction of hypertrophy in vivo, nine to ten-week-old male Sprague-Dawley rats were anesthetized via passive inhalation of 2.0% isoflurane. When a level of surgical anesthesia was reached, an osmotic minipump (Alzet model 2001, Alza Corp., Palo Alto, Calif.) containing either vehicle (0.1% ascorbic acid in 0.9% NaCl), or isoproterenol (4.8 mg/kg/d) was subcutaneously implanted into the back between the scapulae followed by closure with 3-0 silk sutures. After 4 days of recovery, animals were sacrificed and left ventricular tissue processed for Western blot analysis as described above. Average heart weight to body weight ratios in isoproterenol versus vehicle-infused rats increased 48% (data not shown).

TRPC3 protein in NRVM = test: Western blot of TRPC3 protein in cultured NRVM exposed to hypertrophic stimuli; assay type: cell-based, rat; conditions: 48 h, phenylephrine, FBS 10%, calcineurin adenovirus MOI 25
Protocol: as §1, with “To verify equivalent protein loading, membranes were subsequently reprobed with a polyclonal rabbit antibody to the housekeeping gene IP90-calnexin. Densitometric analysis of immunoreactive band images was performed using a ChemiImager (Alpha Innotech).” left out

For `NCCOB(c1ccccc1)c1ccccc1` [Compound 2-APB, 2-amino-ethoxydiphenyl borane], the “cytotoxicity as measured by adenylate kinase release” value ([1]; 48 hours, 0.3 to 30 μM) is listed as “no significant cytotoxicity; also recorded: no significant toxicity was observed at any concentration”, the “inhibition of S-nitrosylation-activated calcium channels” value [2] is listed as “not inhibited” and the “expression of 38 kDa calcineurin-independent MCIP1 isoform” value [3] is listed as “unaffected”. The “PE-dependent induction of 28 kDa MCIP1 protein” value ([3]; PE-stimulated NRVM, increasing concentrations) was “attenuates; also recorded: attenuated induction”, the “inhibition of arachidonic acid-activated calcium channels” value [4] was “not inhibited” and the “inhibition of voltage-gated calcium channels” value [5] was “not inhibited”. For the same compound, the “inhibition of purinergic P2X receptor calcium channels” value [6] was “not inhibited”, the “inhibition of calcium-activated chloride channels” value [7] was “not inhibited” and the “inhibition of ryanodine receptors” value (ryanodine receptors) was “not inhibited”.

In the case of `CC(C)NCC(O)c1ccc(O)c(O)c1` (stereo not drawn) [isoproterenol], the TRPC3 protein expression ([8]; Rat iso model) is reported as “↑”, the TRPC5 protein expression ([8]; Rat iso model) is reported as “increased expression” and the TRPC5 protein expression ([8]; Rat iso model, listed as iso) is reported as “↑”. The “induction of ventricular TRPC3 protein expression” value ([8]; rat, chronic isoproterenol infusion, densitometry) was “approximately three-fold” and the “increase of average heart weight to body weight ratio versus vehicle-infused rats” value [9] was 48%.

With `CNC[C@H](O)c1cccc(O)c1` [phenylephrine] the “expression of 38 kDa calcineurin-independent MCIP1 isoform” value [3] was “unaffected”, the “expression of 28 kDa MCIP1 protein” value ([3]; NRVM stimulated with phenylephrine) was “strongly induced” and the “expression of TRPC3 channel protein in cardiomyocytes” value (TRPC3 protein in NRVM) was “significantly increased”.

For Triton X-100, the “fold change in AK release versus unstimulated control” value ([1]; 0.1% Triton X-100, positive control for cytotoxicity) was “approximately 6 fold”.

— US20050182011A1, “Inhibition of TRP channels as a treatment for cardiac hypertrophy and heart failure” (priority 2003, published 2005)
